One compound from EP0655506B1 (priority 1994, dated 1995) can be followed below.

What all share (experiment): SDS activity gel analysis, incorporation of ddNMP relative to dNMP (Example 2)
The target in test [1] is T1, E. coli DNA polymerase I mutant Pol I C-K6 (F762Y), R R S A K A I N Y G L I Y G (Escherichia coli, UniProt P00582, F762Y).
T1 construct: the large fragment of E. coli DNA polymerase I (Klenow fragment); made in house; crude lysate, renatured in gel
In kind it is biochemical. How it is done: (§1) Mutant DNA polymerases are screened for their ability to incorporate dideoxynucleotides by SDS activity gel analysis. The procedure is a modification of that described by Spanos and Hübscher 91 Methods in Enzymology 263, 1983 and Karawya et al. 135 Analytical Biochemistry 318, 1983. Briefly, 10 ml of cells are induced for 4 to 6 hours and then pelleted. The cell pellet is resuspended in 0.3 ml 25 mM Tris HCl, pH 7.0, 5 mM EDTA. 20 µl of the resuspended cells are mixed with 40 µl of a solution of 1% SDS (sodium dodecyl sulfate), 2% mercaptoethanol, 30 % glycerol, 0.04% bromphenol blue, and 100 mM TrisHCl, pH 6.8. The mixtures are incubated at 37 °C for 5 min, and then 20 µl aliquots are loaded in duplicate onto two SDS polyacrylamide gels. The SDS polyacrylamide gels consist of a resolving gel that contains 8% polyacrylamide, 0.27% bisacrylamide, 190 mM TrisHCl, pH 8.8, 0.05% SDS, and 25 µg/ml denatured salmon sperm DNA, and a stacking gel that consists of 5% polyacrylamide, 0.17% bisacrylamide, 150 mM TrisHCl, pH 6.8, and 0.1% SDS. The two gels are electrophoresed at 100 V for 13 hr at a constant temperature of 13 °C in an electrophoresis buffer consisting of 190 mM TrisHCl and pH 8.8, 0.05% SDS.
(§2) After electrophoresis, the gels are washed over 8 hr in 4 changes of 500 ml each of Renaturation Buffer (50 mM Tris.HCl, pH 7.5, 5 mM magnesium acetate, 1 mM dithiothreitol, 40 mM KCI, 400 µg/ml bovine serum albumin, 16% glycerol and 0.95 mM EDTA) at 4 °C.
(§3) The renatured proteins are assayed for DNA polymerase activity by incubating each of the two gels in 6 ml of Renaturation Buffer, 1.5 µM 4dNTPs, 4 µl of [a-^32P]dATP (800 Ci/mmol, 10 mCi/ml), and 80 µg of purified thioredoxin. One of the mixtures also contains 30 µM ddTTP (a 20-fold molar excess over dTTP). The mixtures are incubated for 4 hr at 37 °C (70 °C for 2 hr for thermophilic DNA polymerases).
(§4) After incubation the gels are washed for 8 hr against four changes of 5% trichloracetic acid and 1% sodium pyrophosphate. The gels are then dried and autoradiographed.
(§5) To determine whether a mutant DNA polymerase is discriminating more or less against ddTTP, the intensities of the radioactive bands are compared on the two gels that were incubated in the presence and absence of ddTTP, and the ratio of the signal in the two bands for the unmodified DNA polymerase is compared with the ratio of the signal in the two bands for each of the mutants.

Test [2] has as its target T2, Taq DNA polymerase mutant Taq C-Q4, R R A A K T I I F G V L Y G (Thermus aquaticus, UniProt P19821, N666I).
T2 construct: the large fragment of Taq DNA polymerase (KlenTaq or _Taq DNA polymerase); made in house; crude lysate, renatured in gel
Format: biochemical. Particulars: renatured enzyme in gel; 1.5 µM 4dNTPs with or without 30 µM ddTTP; 70 °C 2 hr. How it is done: as §1, §2, §3, §4, §5

The target in test [3] is T3, Taq DNA polymerase mutant Tqa C-Q5 (F667Y), R R A A K T I N Y G V L Y G (Thermus aquaticus, UniProt P19821, F667Y).
T3 construct: the large fragment of Taq DNA polymerase (KlenTaq or _Taq DNA polymerase); made in house; crude lysate, renatured in gel
T3 sequence (P19821 236-832 F667Y): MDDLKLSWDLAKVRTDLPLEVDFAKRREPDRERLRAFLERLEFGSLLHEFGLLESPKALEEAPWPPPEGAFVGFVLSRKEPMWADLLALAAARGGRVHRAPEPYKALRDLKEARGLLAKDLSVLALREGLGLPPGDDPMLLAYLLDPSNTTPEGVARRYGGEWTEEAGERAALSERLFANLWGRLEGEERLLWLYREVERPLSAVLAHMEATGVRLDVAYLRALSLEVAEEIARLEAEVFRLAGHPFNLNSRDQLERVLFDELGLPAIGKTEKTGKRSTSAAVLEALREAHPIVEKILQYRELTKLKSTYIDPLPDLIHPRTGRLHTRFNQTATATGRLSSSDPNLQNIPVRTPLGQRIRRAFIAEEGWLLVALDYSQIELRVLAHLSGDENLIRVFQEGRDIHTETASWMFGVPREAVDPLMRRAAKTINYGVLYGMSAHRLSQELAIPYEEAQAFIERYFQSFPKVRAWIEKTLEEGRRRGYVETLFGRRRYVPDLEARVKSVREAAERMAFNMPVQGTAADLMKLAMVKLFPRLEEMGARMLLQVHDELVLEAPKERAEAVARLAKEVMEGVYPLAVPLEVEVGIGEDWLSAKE
In kind it is biochemical. Particulars: renatured enzyme in gel; 1.5 µM 4dNTPs with or without 30 µM ddTTP; 70 °C 2 hr. On the procedure: as §1, §2, §3, §4, §5

Test [4] addresses T4, T7 DNA polymerase mutant T7 C-T8 (Y526F), R D N A K T F I F G F L Y G (Escherichia phage T7, UniProt P00581, DEL118-145/Y526F).
T4 construct: made in house; host or cells: induced cells of a strain producing E. coli thioredoxin; crude lysate, renatured in gel
Format: biochemical, bacteriophage T7. How it is done:
as §1, §2, §3, §4, §5

Test [5] deals with T5, T7 DNA polymerase mutant T7 C-T6, R D N A K T F N F G F L Y G (Escherichia phage T7, UniProt P00581, DEL118-145/I525N/Y526F).
T5 construct: made in house; host or cells: induced cells of a strain producing E. coli thioredoxin; crude lysate, renatured in gel
T5 sequence (P0AA25 2-109, stated change not applied): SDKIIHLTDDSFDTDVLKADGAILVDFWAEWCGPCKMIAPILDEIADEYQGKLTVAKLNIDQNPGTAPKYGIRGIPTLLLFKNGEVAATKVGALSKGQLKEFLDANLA
T5 sequence (P00581 other isoform, or with tags, fused parts or gaps DEL118-145/I525N/Y526F): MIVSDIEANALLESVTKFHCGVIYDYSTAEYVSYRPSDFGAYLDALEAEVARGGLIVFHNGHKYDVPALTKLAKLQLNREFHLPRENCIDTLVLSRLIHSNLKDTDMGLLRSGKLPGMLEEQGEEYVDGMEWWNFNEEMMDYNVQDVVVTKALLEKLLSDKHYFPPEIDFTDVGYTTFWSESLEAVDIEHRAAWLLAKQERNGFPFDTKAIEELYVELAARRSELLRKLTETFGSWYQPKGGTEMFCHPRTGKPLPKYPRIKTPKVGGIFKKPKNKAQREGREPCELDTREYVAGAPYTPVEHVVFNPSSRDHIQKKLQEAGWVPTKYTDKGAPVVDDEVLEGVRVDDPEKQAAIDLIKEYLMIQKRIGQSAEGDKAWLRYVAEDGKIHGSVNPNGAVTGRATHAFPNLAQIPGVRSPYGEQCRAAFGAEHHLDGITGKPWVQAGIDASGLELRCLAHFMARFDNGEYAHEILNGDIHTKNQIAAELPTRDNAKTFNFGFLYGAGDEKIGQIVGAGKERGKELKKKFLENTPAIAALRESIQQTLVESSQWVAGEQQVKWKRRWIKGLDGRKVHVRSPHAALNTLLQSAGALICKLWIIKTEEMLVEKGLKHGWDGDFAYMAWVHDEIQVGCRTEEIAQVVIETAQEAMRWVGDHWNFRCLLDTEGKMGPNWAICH
Format: biochemical, bacteriophage T7. The note with it: renatured enzyme in gel; 1.5 µM 4dNTPs with or without 30 µM ddTTP; 37 °C 4 hr. On the procedure:
as §1, §2, §3, §4, §5

For test [6], the target named is T6, T7 DNA polymerase mutant T7 C-T5, R D N A K A I I Y G F L Y G (Escherichia phage T7, UniProt P00581, DEL118-145/F524I/T523A).
T6 construct: made in house; host or cells: induced cells of a strain producing E. coli thioredoxin; crude lysate, renatured in gel
T6 sequence (P0AA25 2-109, stated change not applied): as the sequence (P0AA25 2-109, stated change not applied) above
T6 sequence (P00581 other isoform, or with tags, fused parts or gaps DEL118-145/T523A/F524I): as the sequence (P00581 other isoform, or with tags, fused parts or gaps DEL118-145/I525N/Y526F) above, with T495A, F496I, N497I, F498Y counted along it
Format: biochemical, bacteriophage T7. The note with it: renatured enzyme in gel; 1.5 µM 4dNTPs with or without 30 µM ddTTP; 37 °C 4 hr. On the procedure: as §1, §2, §3, §4, §5

Test [7] deals with T7, T7 DNA polymerase mutant T7 C-T3, R R S A K T F I Y G F L Y G (Escherichia phage T7, UniProt P00581, D519R/DEL118-145/N520S).
T7 construct: made in house; host or cells: induced cells of a strain producing E. coli thioredoxin; crude lysate, renatured in gel
T7 sequence (P00581 other isoform, or with tags, fused parts or gaps DEL118-145/D519R/N520S): as the sequence (P00581 other isoform, or with tags, fused parts or gaps DEL118-145/I525N/Y526F) above, with D491R, N492S, N497I, F498Y counted along it
T7 sequence (P0AA25 2-109, stated change not applied, further chain): as the sequence (P0AA25 2-109, stated change not applied) above
In kind it is biochemical, bacteriophage T7. The note with it: renatured enzyme in gel; 1.5 µM 4dNTPs with or without 30 µM ddTTP; 37 °C 4 hr. On the procedure: as §1, §2, §3, §4, §5

For test [8], the target named is T8, T7 DNA polymerase mutant T7 C-T7, R D N A K T F N Y G F L Y G (Escherichia phage T7, UniProt P00581, DEL118-145/I525N).
T8 construct: made in house; host or cells: induced cells of a strain producing E. coli thioredoxin; crude lysate, renatured in gel
T8 sequence (P0AA25 2-109, stated change not applied): as above
T8 sequence (P00581 other isoform, or with tags, fused parts or gaps DEL118-145/I525N): as the sequence (P00581 other isoform, or with tags, fused parts or gaps DEL118-145/I525N/Y526F) above, with F498Y counted along it
Format: biochemical, bacteriophage T7. Particulars: renatured enzyme in gel; 1.5 µM 4dNTPs with or without 30 µM ddTTP; 37 °C 4 hr. On the procedure:
as §1, §2, §3, §4, §5

In test [9] the target is T9, T7 DNA polymerase mutant T7 C-T2, R R S A K A I N F G L I Y G (Escherichia phage T7, UniProt P00581, D519R/DEL118-145/F524I/F528L/I525N/L529I/N520S/T523A/Y526F).
T9 construct: made in house; host or cells: induced cells of a strain producing E. coli thioredoxin; crude lysate, renatured in gel
T9 sequence (P00581 other isoform, or with tags, fused parts or gaps DEL118-145/D519R/N520S/T523A/F524I/I525N/Y526F/F528L/L529I): as the sequence (P00581 other isoform, or with tags, fused parts or gaps DEL118-145/I525N/Y526F) above, with D491R, N492S, T495A, F496I, F500L, L501I counted along it
T9 sequence (P0AA25 2-109, stated change not applied, further chain): as the sequence (P0AA25 2-109, stated change not applied) above
In kind it is biochemical, bacteriophage T7. The note with it: renatured enzyme in gel; 1.5 µM 4dNTPs with or without 30 µM ddTTP; 37 °C 4 hr. How it is done:
as §1, §2, §3, §4, §5

The target in test [10] is T10, T7 DNA polymerase mutant T7 C-T4, R D N A K A I N F G F L Y G (Escherichia phage T7, UniProt P00581, DEL118-145/F524I/I525N/T523A/Y526F).
T10 construct: made in house; host or cells: induced cells of a strain producing E. coli thioredoxin; crude lysate, renatured in gel
T10 sequence (P00581 other isoform, or with tags, fused parts or gaps DEL118-145/T523A/F524I/I525N/Y526F): as the sequence (P00581 other isoform, or with tags, fused parts or gaps DEL118-145/I525N/Y526F) above, with T495A, F496I counted along it
T10 sequence (P0AA25 2-109, stated change not applied, further chain): as the sequence (P0AA25 2-109, stated change not applied) above
In kind it is biochemical, bacteriophage T7. Particulars: renatured enzyme in gel; 1.5 µM 4dNTPs with or without 30 µM ddTTP; 37 °C 4 hr. How it is done: as §1, §2, §3, §4, §5

In test [11] the target is T11, T7 DNA polymerase, wild type (T7 WT), R D N A K T F I Y G F L Y G (Escherichia phage T7, UniProt P00581, DEL118-145).
T11 construct: made in house; host or cells: induced cells of a strain producing E. coli thioredoxin; crude lysate, renatured in gel
T11 sequence (P00581 other isoform, or with tags, fused parts or gaps DEL118-145): as the sequence (P00581 other isoform, or with tags, fused parts or gaps DEL118-145/I525N/Y526F) above, with N497I, F498Y counted along it
T11 sequence (P0AA25 2-109, stated change not applied, further chain): as the sequence (P0AA25 2-109, stated change not applied) above
Format: biochemical, bacteriophage T7. On the procedure:
as §1, §2, §3, §4, §5

Where [12] appears, read: renatured enzyme in gel, 1.5 µM 4dNTPs with or without 30 µM ddTTP, 37 °C 4 hr.

The structures appear in SMILES notation.

T4 sequence (P00581 other isoform, or with tags, fused parts or gaps DEL118-145/Y526F): as the sequence (P00581 other isoform, or with tags, fused parts or gaps DEL118-145/I525N/Y526F) above, with N497I counted along it
T4 sequence (P0AA25 2-109, stated change not applied, further chain): as the sequence (P0AA25 2-109, stated change not applied) above
T1 sequence (P00582 324-928 F762Y): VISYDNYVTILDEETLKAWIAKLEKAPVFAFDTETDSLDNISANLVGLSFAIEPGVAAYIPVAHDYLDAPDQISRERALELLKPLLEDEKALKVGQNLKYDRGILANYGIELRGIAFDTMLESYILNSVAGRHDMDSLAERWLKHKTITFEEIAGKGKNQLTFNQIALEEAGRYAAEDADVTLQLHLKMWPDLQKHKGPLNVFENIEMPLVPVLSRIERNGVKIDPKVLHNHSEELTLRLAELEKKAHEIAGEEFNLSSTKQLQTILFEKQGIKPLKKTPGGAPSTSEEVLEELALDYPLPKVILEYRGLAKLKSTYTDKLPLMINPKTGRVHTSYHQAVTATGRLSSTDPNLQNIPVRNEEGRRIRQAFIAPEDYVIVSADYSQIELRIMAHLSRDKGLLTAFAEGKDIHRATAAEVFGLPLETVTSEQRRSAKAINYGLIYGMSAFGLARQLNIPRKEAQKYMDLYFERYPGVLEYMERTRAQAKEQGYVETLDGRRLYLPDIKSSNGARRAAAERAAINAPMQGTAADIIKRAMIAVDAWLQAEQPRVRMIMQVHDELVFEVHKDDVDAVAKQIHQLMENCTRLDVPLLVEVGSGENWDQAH
T2 sequence (P19821 236-832 N666I): as the sequence (P19821 236-832 F667Y) above, with N431I, Y432F counted along it

`Cc1cn([C@H]2CC[C@@H](COP(=O)(O)OP(=O)(O)OP(=O)(O)O)O2)c(=O)[nH]c1=O` [ddTTP]: the activity at 30 µM in test [1] (read-out: intensity of the bands in the presence of ddTTP relative to the absence of ddTTP) is under 5%. For the same compound, the “ddNTP Discrimination” value in [1] (setting [12]) is listed as “Low”; in [2] it was “High”; in [3], “Low”; in [4] (setting [12]), “High”; in [5], “High”; in [6], “Low”. Besides, the “ddNTP Discrimination” value in test [7] is recorded as “Low”; in [8] it was “Low”; in test [9], “High”; in test [10], “High”; in [11] (setting [12]), “Low”. Further, the “intensity of the bands in the presence versus the absence of ddTTP” value in [4] (30 µM ddTTP (20-fold molar excess over dTTP), 1.5 µM 4dNTPs, within a factor of two) is on record as “approximately the same intensity”. In test [11] (30 µM ddTTP (20-fold molar excess over dTTP), 1.5 µM 4dNTPs), the “intensity of the bands in the presence of ddTTP relative to the absence of ddTTP” value is reported as under 5%.
